Results: patent publication US4837228A, “Antiinflammatory and antimicrobial compounds and compositions” (The University of Mississippi, priority 1982, dated 1989)
Values after ≈ are worked out from the molar mass of the structure shown. Values joined by “and” are separate entries in the source; they are usually repeats but may differ in a detail not shown here. Equal entries are not always repeated. Where two headings read alike, the source gives them in different places.

What was measured:
Type in all cases: cell-based
Bacillus subtilis [1] = test: agar well diffusion assay, B. subtilis; conditions: from edge of agar well
Method: (§1) Both qualitative and quantitative screens were performed. Qualitative screening was accomplished using the agar well diffusion assay technque while quantitative screening was accomplished by the two-fold (broth) serial dilution method to determine the minimum inhibitory concentration (MIC). Innoculation was accomplished with one loop-full of a 1:10 dilution of the 24-hour-old broth culture, (fungal cultures and M.smegmatis more often required 48 to 72 hours of incubation) of the test organisms in sterile water. Streptomycin sulfate was used as a positive control for antibacterial activity while amphitericin B was used as an antifungal positive control. Organisms utilized in the screens included gram-positive, gram-negative, and acid-fast bacteria as well as different types of fungi. […] An intermediate type activity is seen where R is hydrogen. However, where R is lengthened up to C15 a decrease in activity was noted. Total saturation of the two double bonds in the compounds having a methyl side chain lead, in most cases, to an increase in both antifungal and antibacterial activity.

[2] = system: erythrocyte (heat-induced hemolysis); test: erythrocyte membrane stabilization assay (heat-induced erythrocyte hemolysis); conditions: Erythrocyte, 1 × 10^-4 M
Method: The published procedure (Proc. Soc. Exp. Biol. Med. 1967; 125; 837-842 Brow et al) for in vitro assay for antiinflammatory agents based on stabilization of erythrocytes was used. All compounds were prepared for administration by dissolving in physiologic saline or suspending in 2% ethanol in saline and the pH adjusted to 7.4 The concentrations tested in one series are given in Table 8. Aspirin (ASA) and phenylbutazone were used as positive controls for comparison of activity. Tests using this procedure were successfully and repeatedly using either 40% or 20% RBC suspensions.

Mycobacterium smegmatis [3] = test: agar well diffusion assay, M. smegmatis; conditions: from edge of agar well
Method: as §1

Pseudomonas aeruginosa = test: agar well diffusion assay, Ps. aeruginosa; conditions: from edge of agar well
Method: as §1

Candida albicans [4] = test: agar well diffusion assay, C. albicans; conditions: from edge of agar well
Method: as §1

Candida albicans [5] = test: MIC, two-fold (broth) serial dilution, C. albicans
Method: as §1

Bacillus subtilis [6] = test: MIC, two-fold (broth) serial dilution, B. subtilis; conditions: Bacillus subtilis, read-out: MIC
Method: as §1

Staphylococcus aureus [7] = test: agar well diffusion assay, S. aureus; conditions: from edge of agar well
Method: as §1

Saccharomyces cerevisiae [8] = test: agar well diffusion assay, S. cerevisiae; conditions: from edge of agar well
Method: as §1

Escherichia coli = test: agar well diffusion assay, E. coli; conditions: from edge of agar well
Method: as §1

Aspergillus niger = test: agar well diffusion assay, A. niger; conditions: from edge of agar well
Method: as §1

Mycobacterium smegmatis [9] = test: MIC, two-fold (broth) serial dilution, M. smegmatis
Method: as §1

[10] = system: Trichophyton mentagrophytes; test: agar well diffusion assay, T. mentagrophytes; conditions: for width of inhibition zone: from edge of agar well; for agar well diffusion result in words: one entry across 48 hr and 72 hr
Method: as §1

[11] = system: Trichophyton mentagrophytes; test: MIC, two-fold (broth) serial dilution, T. mentagrophytes
Method: as §1

Staphylococcus aureus [12] = test: MIC, two-fold (broth) serial dilution, S. aureus; conditions: Staphylococcus aureus, read-out: MIC
Method: as §1

Saccharomyces cerevisiae [13] = test: MIC, two-fold (broth) serial dilution, S. cerevisiae
Method: as §1

[14] = Mycolicibacterium smegmatis, 24 h, read-out: MIC
[15] = Mycolicibacterium smegmatis, 48 h, read-out: MIC
[16] = Trichophyton mentagrophytes, 48 h, read-out: MIC
[17] = Trichophyton mentagrophytes, 72 h, read-out: MIC
[18] = 48 hr, listed as Iso CBC (VIII)
[19] = 72 hr, listed as Iso CBC (VIII)

SMILES | width of inhibition zone (Bacillus subtilis [1]; 24 hr) | width of inhibition zone (Bacillus subtilis [1]; 48 hr) | width of inhibition zone (Mycobacterium smegmatis [3]; 24 hr) | width of inhibition zone (Mycobacterium smegmatis [3]; 48 hr) | width of inhibition zone (Pseudomonas aeruginosa; 24 hr) | width of inhibition zone (Candida albicans [4]; 48 hr) | width of inhibition zone (Candida albicans [4]; 72 hr) | MIC (Candida albicans [5]; 72 hr) | width of inhibition zone (Staphylococcus aureus [7]; 24 hr) | width of inhibition zone (Staphylococcus aureus [7]; 48 hr) | width of inhibition zone (Saccharomyces cerevisiae [8]; 48 hr) | width of inhibition zone (Saccharomyces cerevisiae [8]; 72 hr) | width of inhibition zone (Escherichia coli; 24 hr) | width of inhibition zone (Escherichia coli; 48 hr) | width of inhibition zone (Aspergillus niger; 48 hr) | MIC (Mycobacterium smegmatis [9]; [14]) | MIC (Mycobacterium smegmatis [9]; [15]) | width of inhibition zone ([10]; 48 hr) | width of inhibition zone ([10]; 72 hr) | MIC [11, 17] | other results
CC(C)=CCCC1(C)C=Cc2c(O)cccc2O1 (centres unmarked) [CBC (VI), 2-methyl-2-(4'-methyl-pent-3'-enyl)-5-hydroxychromene] | 10. mm | 10. mm | 20. mm | 18. mm | 3. mm | 7. mm | 5. mm | 50.0 µg/mL (≈ 205 µM) | 15. mm | 15. mm | 10. mm | 8. mm | 3. mm | 2. mm | 9. mm | 12.5 µg/mL (≈ 51.2 µM) | 12.5 µg/mL (≈ 51.2 µM) | 20. mm | 19. mm | 25 µg/mL (≈ 102 µM) | inhibition at 100 µM ([2]; Table 8, read-out: inhibition of heat-induced erythrocyte hemolysis): 69%; MIC (Candida albicans [5]; 48 hr): 50.0 µg/mL (≈ 205 µM); MIC (Candida albicans [5]; Candida albicans, 48 h, read-out: MIC): 50 µg/mL (≈ 205 µM); MIC (Candida albicans [5]; Candida albicans, 72 h, read-out: MIC): 50 µg/mL (≈ 205 µM); MIC (Bacillus subtilis [6]; 24 h): 6.25 µg/mL (≈ 25.6 µM); MIC (Bacillus subtilis [6]; 48 h): 12.5 µg/mL (≈ 51.2 µM); width of inhibition zone (Aspergillus niger; 72 hr): 5. mm; MIC ([11]; 48 hr): 25.0 µg/mL (≈ 102 µM); MIC ([11]; 72 hr): 25.0 µg/mL (≈ 102 µM); MIC [11, 16]: 25 µg/mL (≈ 102 µM); MIC (Staphylococcus aureus [12]; 24 h): 12.5 µg/mL (≈ 51.2 µM); MIC (Staphylococcus aureus [12]; 48 h): 12.5 µg/mL (≈ 51.2 µM); MIC (Saccharomyces cerevisiae [13]; 48 hr): 25.0 µg/mL (≈ 102 µM); MIC (Saccharomyces cerevisiae [13]; 72 hr): 25.0 µg/mL (≈ 102 µM); MIC (Saccharomyces cerevisiae [13]; Saccharomyces cerevisiae, 48 h, read-out: MIC): 25 µg/mL (≈ 102 µM); MIC (Saccharomyces cerevisiae [13]; Saccharomyces cerevisiae, 72 h, read-out: MIC): 25 µg/mL (≈ 102 µM)
C[C@@H]1[C@H](O)[C@@H](C)/C=C/C=C/C=C/C=C/C=C/C=C/C=C/[C@H](O[C@@H]2O[C@H](C)[C@@H](O)[C@H](N)[C@@H]2O)C[C@@H]2O[C@](O)(C[C@@H](O)C[C@@H](O)[C@H](O)CC[C@@H](O)C[C@@H](O)CC(=O)O[C@H]1C)C[C@H](O)[C@H]2C(=O)O [Amphotericin B, reference compound] | – | – | – | – | – | 7. mm and 5. mm | – | 25 µg/mL (≈ 27.1 µM) | – | – | 7. mm | 8. mm and 5. mm | – | – | 4. mm and 2. mm | – | – | 4. mm | 4. mm | 25 µg/mL (≈ 27.1 µM) | agar well diffusion result in words [10]: No growth; MIC ([11]; 48 hr): 25.0 µg/mL (≈ 27.1 µM); MIC ([11]; 72 hr): 25.0 µg/mL and 50 µg/mL
CC(C)=CCCC1(C)C=Cc2ccc(O)cc2O1 (centres unmarked) [Iso CBC (VII), 2-methyl-2(4'-methyl-pent-3'-enyl)-7-hydroxychromene] | 10. mm | 7. mm | 6. mm | 4. mm | 4. mm | 3. mm | 2. mm | – | 10. mm | 10. mm | 2. mm | 2. mm | 2. mm | 2. mm | 1. mm | 25 µg/mL (≈ 102 µM) | 25 µg/mL (≈ 102 µM) | – | – | 6.25 µg/mL (≈ 25.6 µM) | inhibition at 100 µM ([2]; read-out: inhibition of heat-induced erythrocyte hemolysis, Table 8): 43%; width of inhibition zone (Mycobacterium smegmatis [3]; 24 hr, listed as Iso CBC (VIII)): 5. mm; width of inhibition zone (Mycobacterium smegmatis [3]; [18]): 5. mm; width of inhibition zone (Pseudomonas aeruginosa; 48 hr): 4. mm; width of inhibition zone (Candida albicans [4]; [18]): 4. mm; width of inhibition zone (Candida albicans [4]; [19]): 5. mm; MIC (Candida albicans [5]; [18]): 12.5 µg/mL (≈ 51.2 µM); MIC (Candida albicans [5]; [19]): 25 µg/mL (≈ 102 µM); width of inhibition zone (Saccharomyces cerevisiae [8]; [18]): 4. mm; width of inhibition zone (Saccharomyces cerevisiae [8]; [19]): 4. mm; MIC (Mycobacterium smegmatis [9]; 24 hr): 12.5 µg/mL (≈ 51.2 µM); MIC (Mycobacterium smegmatis [9]; 48 hr): 12.5 µg/mL (≈ 51.2 µM); agar well diffusion result in words [10]: No growth; MIC [11, 16]: 6.25 µg/mL (≈ 25.6 µM); MIC (Staphylococcus aureus [12]; 24 h): 12.5 µg/mL (≈ 51.2 µM); MIC (Staphylococcus aureus [12]; 48 h): 12.5 µg/mL (≈ 51.2 µM)
